Structures can show the parent of a compound that is named as a salt.
Assay: Particle size distribution by laser diffraction (Sympatec Helos)
Format: physicochemical
Details: for particle size: product of the prior process (background statement), method not stated at that place
From the text: As used herein, “particle size distribution” means the cumulative volume size distribution of equivalent spherical diameters as determined by laser diffraction at 1 bar dispersive pressure in a Sympatec Helos equipment. “Median particle size”, correspondingly, means the median of said particle size distribution.
A wet filter cake obtained by precipitation of crude escitalopram oxalate by mixing of ethanolic solutions of escitalopram and oxalic acid, respectively, and containing approximately 35 kg escitalopram oxalate was suspended in 322 L ethanol. The material was dissolved by heating to reflux, and 150 L ethanol was removed by distillation. Cooling was applied, and the mixture was cooled from reflux to 15° C. with a cooling rate between 0.2 and 0.5° C./min in the temperature interval 80 to 40° C. During cooling, the mixture was seeded with escitalopram oxalate at 75, 65 and 60° C. (10 g each time). The crystallization mixture was kept at 15° C. for 10 hours before the crystalline escitalopram oxalate was isolated. Purified escitalopram oxalate (27.7 kg, […]) was obtained by filtration of the crystallization mixture, washing with ethanol and drying of the filter cake.

| Particle size distribution, 10% quantile (Quantile 10%, cumulative volume size distribution, Sympatec Helos, 1 bar dispersive pressure) | Particle size distribution, 50% quantile (median particle size) (Quantile 50%, cumulative volume size distribution, Sympatec Helos, 1 bar dispersive pressure) | Particle size distribution, 90% quantile (Quantile 90%, cumulative volume size distribution, Sympatec Helos, 1 bar dispersive pressure) | particle size | SMILES |
| --- | --- | --- | --- | --- |
| 13 μm | 163 μm | 455 μm | – | CN(C)CCC[C@@]1(c2ccc(F)cc2)OCc2cc(C#N)ccc21.O=C(O)C(=O)O [Example 1, (S)-1-[3-(dimethylamino)propyl]-1-(4-fluorophenyl)-1,3-dihydro-5-isobenzofurancarbonitrile oxalate] |
| – | – | – | 2-20 μm | CN(C)CCCC1(c2ccc(F)cc2)OCc2cc(C#N)ccc21 (centres unmarked) [citalopram hydrobromide, reference compound] |
| – | – | – | 2-20 μm | CN(C)CCC[C@@]1(c2ccc(F)cc2)OCc2cc(C#N)ccc21.O=C(O)C(=O)O [escitalopram oxalate, (S)-1-[3-(dimethylamino)propyl]-1-(4-fluorophenyl)-1,3-dihydro-5-isobenzofurancarbonitrile oxalate, reference compound] |

Reference: patent US7420069B2, “Crystalline composition containing escitalopram” (H. Lundbeck A/S, priority 2001, dated 2008)
